Results as given in article PMC8286840, “Identifying SARS-CoV-2 antiviral compounds by screening for small molecule inhibitors of Nsp3 papain-like protease” (Biochemical Journal, 2021).
Structures can show the parent of a compound that is named as a salt. Where two headings read alike, the source gives them in different places.

Columns and labels:
[1] = target: T1, SARS-CoV-2 PLpro (nsp3 1564–1878) (Severe acute respiratory syndrome coronavirus 2, UniProt P0DTD1); experiment: biochemical; set-up: FRET-quenched peptide (Pro3) cleavage by PLpro, 10 min pre-incubation, slope over 20 min, normalised to no-compound control; conditions: high concentration screen, read-out: % of control remaining
[2] = target: T1, SARS-CoV-2 PLpro (nsp3 1564–1878); experiment: biochemical; set-up: FRET-quenched peptide (Pro3) cleavage by PLpro, 10 min pre-incubation, slope over 20 min, normalised to no-compound control; conditions: low concentration screen, read-out: % of control remaining

## O=C(/C=C/c1ccc(O)cc1)CC(=O)/C=C/c1ccc(O)cc1 [Bis demethoxycurcumin]
[1]; Well no.=3466
  remaining activity at 3.75 µM: 103%
[2]; Well no.=3466
  remaining activity at 1.25 µM: 102%

## CC(=O)Oc1ccc(C(c2ccc(OC(C)=O)cc2)c2ccccn2)cc1 [Bisacodyl]
[1]; Well no.=2175
  remaining activity at 3.75 µM: 102%
[2]; Well no.=2175
  remaining activity at 1.25 µM: 105%

## O=C(/C=C/c1ccc(O)cc1)CC(=O)/C=C/c1ccc(O)cc1 [Bisdemethoxycurcumin]
[1]; Well no.=6536
  remaining activity at 3.75 µM: 92.4%
[2]; Well no.=6536
  remaining activity at 1.25 µM: 97.5%

## O=C1NC(=O)C(c2c[nH]c3ccccc23)=C1c1c[nH]c2ccccc12 [Bisindolylmaleimide IV]
[1]; Well no.=2355
  remaining activity at 3.75 µM: 99.7%
[2]; Well no.=2355
  remaining activity at 1.25 µM: 101%

## CN(C)CCCn1cc(C2=C(c3c[nH]c4ccccc34)C(=O)NC2=O)c2ccccc21 [Bisindolylmaleimide I]
[1]; Well no.=2325
  remaining activity at 3.75 µM: 98.8%
[2]; Well no.=2325
  remaining activity at 1.25 µM: 97.2%

## CN1C(=O)C(c2c[nH]c3ccccc23)=C(c2c[nH]c3ccccc23)C1=O [Bisindolylmaleimide V]
[1]; Well no.=2339
  remaining activity at 3.75 µM: 91.1%
[2]; Well no.=2339
  remaining activity at 1.25 µM: 92.9%

## CC(C)NCC(O)COc1ccc(COCCOC(C)C)cc1 (stereo not drawn) [Bisoprolol]
[1]; Well no.=5109
  remaining activity at 3.75 µM: 98.6%
[2]; Well no.=5109
  remaining activity at 1.25 µM: 96.8%

## Cc1c(N)nc([C@H](CC(N)=O)NC[C@H](N)C(N)=O)nc1C(=O)N[C@H](C(=O)N[C@H](C)[C@@H](O)[C@H](C)C(=O)N[C@H](C(=O)NCCc1nc(-c2nc(C(=O)NCCC[S+](C)C)cs2)cs1)[C@@H](C)O)[C@@H](O[C@@H]1O[C@@H](CO)[C@@H](O)[C@H](O)[C@@H]1O[C@H]1O[C@H](CO)[C@@H](O)[C@H](OC(N)=O)[C@@H]1O)c1cnc[nH]1 [Bleomycin sulfate]
[1]; Well no.=3558
  remaining activity at 3.75 µM: 107%
[2]; Well no.=3558
  remaining activity at 1.25 µM: 107%

## Cc1c(N)nc([C@H](CC(N)=O)NC[C@H](N)C(N)=O)nc1C(=O)N[C@H](C(=O)N[C@H](C)[C@@H](O)[C@H](C)C(=O)N[C@H](C(=O)NCCc1nc(-c2nc(C(=O)NCCC[S+](C)C)cs2)cs1)[C@@H](C)O)[C@@H](OC1OC(CO)C(O)C(O)C1OC1OC(CO)C(O)C(OC(N)=O)C1O)c1cnc[nH]1 (stereo partly drawn) [Bleomycin]
[1]; Well no.=1890
  remaining activity at 3.75 µM: 91.9%
[2]; Well no.=1890
  remaining activity at 1.25 µM: 89.5%

## COc1cc2c(cc1O)C[C@H]1c3c(cc(O)c(OC)c3-2)CCN1C [Boldine]
[1]; Well no.=3166
  remaining activity at 3.75 µM: 101%
[2]; Well no.=3166
  remaining activity at 1.25 µM: 102%

## Cc1cc2c(OCC(CNC(C)(C)C)OC(=O)c3ccccc3)cccc2[nH]1 (stereo not drawn) [Bopindolol]
[1]; Well no.=1892
  remaining activity at 3.75 µM: 97.2%
[2]; Well no.=1892
  remaining activity at 1.25 µM: 96.2%

## CC(C)C[C@H](NC(=O)[C@H](Cc1ccccc1)NC(=O)c1cnccn1)B(O)O [Bortezomib]
[1]; Well no.=1768
  remaining activity at 3.75 µM: 101%
[2]; Well no.=1768
  remaining activity at 1.25 µM: 99.9%
[2]; Well no.=6302
  remaining activity at 1.25 µM: 98.1%

## COc1ccccc1Oc1c(NS(=O)(=O)c2ccc(C(C)(C)C)cc2)nc(-c2ncccn2)nc1OCCO [Bosentan (hydrate)]
[1]; Well no.=6461
  remaining activity at 3.75 µM: 101%
[2]; Well no.=6461
  remaining activity at 1.25 µM: 102%

## COc1ccccc1Oc1c(NS(=O)(=O)c2ccc(C(C)(C)C)cc2)nc(-c2ncccn2)nc1OCCO [Bosentan Hydrate]
[1]; Well no.=5273
  remaining activity at 3.75 µM: 95.6%
[2]; Well no.=5273
  remaining activity at 1.25 µM: 97.9%

## COc1ccccc1Oc1c(NS(=O)(=O)c2ccc(C(C)(C)C)cc2)nc(-c2ncccn2)nc1OCCO [Bosentan]
[1]; Well no.=2246
  remaining activity at 3.75 µM: 95%
[1]; Well no.=7575
  remaining activity at 3.75 µM: 96.3%
[2]; Well no.=2246
  remaining activity at 1.25 µM: 93.3%
[2]; Well no.=7575
  remaining activity at 1.25 µM: 98.7%

## COc1cc(Nc2c(C#N)cnc3cc(OCCCN4CCN(C)CC4)c(OC)cc23)c(Cl)cc1Cl [Bosutinib]
[1]; Well no.=2883
  remaining activity at 3.75 µM: 100%
[2]; Well no.=2883
  remaining activity at 1.25 µM: 97.8%

## CSC(=S)NCc1c[nH]c2ccccc12 [Brassinin]
[1]; Well no.=3801
  remaining activity at 3.75 µM: 101%
[2]; Well no.=3801
  remaining activity at 1.25 µM: 101%

## C[C@H]1CCC/C=C/[C@@H]2C[C@H](O)C[C@H]2[C@H](O)/C=C/C(=O)O1 [Brefeldin A]
[1]; Well no.=3093
  remaining activity at 3.75 µM: 100%
[2]; Well no.=3093
  remaining activity at 1.25 µM: 101%

## CC[N+](C)(C)Cc1ccccc1Br [Bretylium tosylate]
[1]; Well no.=321
  remaining activity at 3.75 µM: 101%
[2]; Well no.=321
  remaining activity at 1.25 µM: 103%

## O=c1ccc2ccc(OCCCCN3CCN(c4cccc5sccc45)CC3)cc2[nH]1 [Brexpiprazole]
[1]; Well no.=6473
  remaining activity at 3.75 µM: 98.1%
[2]; Well no.=6473
  remaining activity at 1.25 µM: 99.5%

## CCN[C@H]1CN(CCCOC)S(=O)(=O)c2sc(S(N)(=O)=O)cc21 [Brinzolamide]
[1]; Well no.=5028
  remaining activity at 3.75 µM: 105%
[2]; Well no.=5028
  remaining activity at 1.25 µM: 105%

## Cc1cc2c(F)c(Oc3ncnn4cc(OC[C@@H](C)OC(=O)[C@H](C)N)c(C)c34)ccc2[nH]1 [Brivanib alaninate (BMS-582664)]
[1]; Well no.=5049
  remaining activity at 3.75 µM: 104%
[2]; Well no.=5049
  remaining activity at 1.25 µM: 102%

## O=c1[nH]c(=O)n([C@H]2C[C@H](O)[C@@H](CO)O2)cc1/C=C/Br [Brivudine]
[1]; Well no.=8845
  remaining activity at 3.75 µM: 98.3%
[2]; Well no.=8845
  remaining activity at 1.25 µM: 107%

## CN(Cc1cc(Br)cc(Br)c1N)C1CCCCC1 [Bromhexine]
[1]; Well no.=2177
  remaining activity at 3.75 µM: 102%
[2]; Well no.=2177
  remaining activity at 1.25 µM: 98.4%

## C=CCc1ccccc1OCC(O)CNC1(C)CCC(C(C)(C)NC(=O)CBr)CC1 (stereo not drawn) [Bromoacetyl alprenolol menthane]
[1]; Well no.=275
  remaining activity at 3.75 µM: 93.3%
[2]; Well no.=275
  remaining activity at 1.25 µM: 91.4%

## C[N+](C)(C)CCOC(=O)CBr [Bromoacetylcholine bromide]
[1]; Well no.=181
  remaining activity at 3.75 µM: 98.9%
[2]; Well no.=181
  remaining activity at 1.25 µM: 102%

## CC(C)C[C@H]1C(=O)N2CCC[C@H]2[C@]2(O)O[C@](NC(=O)[C@@H]3C=C4c5cccc6[nH]c(Br)c(c56)C[C@H]4N(C)C3)(C(C)C)C(=O)N12 [Bromocriptine (mesylate)]
[1]; Well no.=6891
  remaining activity at 3.75 µM: 96.2%
[2]; Well no.=6891
  remaining activity at 1.25 µM: 97.5%

## CC(C)C[C@H]1C(=O)N2CCC[C@H]2[C@]2(O)O[C@](NC(=O)[C@@H]3C=C4c5cccc6[nH]c(Br)c(c56)C[C@H]4N(C)C3)(C(C)C)C(=O)N12 [Bromocriptine mesylate]
[1]; Well no.=1811
  remaining activity at 3.75 µM: 91.6%
[1]; Well no.=3485
  remaining activity at 3.75 µM: 101%
[2]; Well no.=1811
  remaining activity at 1.25 µM: 92.4%
[2]; Well no.=3485
  remaining activity at 1.25 µM: 104%

## O=C1O/C(=C/Br)CCC1c1cccc2ccccc12 (stereo not drawn) [Bromoenol lactone]
[1]; Well no.=310
  remaining activity at 3.75 µM: 96.9%
[2]; Well no.=310
  remaining activity at 1.25 µM: 93%

## CN(C)CCC(c1ccc(Br)cc1)c1ccccn1 (stereo not drawn) [Brompheniramine (maleate)]
[1]; Well no.=7377
  remaining activity at 3.75 µM: 105%
[2]; Well no.=7377
  remaining activity at 1.25 µM: 102%

## CN(C)CCC(c1ccc(Br)cc1)c1ccccn1 (stereo not drawn) [Brompheniramine]
[1]; Well no.=5292
  remaining activity at 3.75 µM: 96.1%
[2]; Well no.=5292
  remaining activity at 1.25 µM: 99%

## COc1cc2c(cc1OC)[C@@]13CC[N+]4([O-])CC5=CCO[C@H]6CC(=O)N2[C@H]1[C@H]6[C@H]5C[C@@H]34 (stereo partly drawn) [Brucine-N-oxide]
[1]; Well no.=3270
  remaining activity at 3.75 µM: 102%
[2]; Well no.=3270
  remaining activity at 1.25 µM: 99.2%
